Three molecules from paper PMC7335187, “Super-assembly of ER-phagy receptor Atg40 induces local ER remodeling at contacts with forming autophagosomal membranes” (Nature Communications, 2020) can be followed below.

Structures are written as SMILES. Where a SMILES comes first, the peptide text is derived from it.

Common to all, as to format: binding
One assay addresses LC3C WT (Homo sapiens, UniProt Q9BXW4). As to the kind of experiment: ITC of peptides with LC3C. As to conditions: 25 °C, ± fitting error. How it is done:
(§1) Some of peptides (Supplementary Table 4) and all proteins except Atg40-6His were expressed in E. coli BL21 (DE3). Bacteria were cultured at 37 °C until OD600 became 0.8–1.0 and further cultured at 16 °C with 100 μM IPTG overnight. After centrifugation, the pellets were resuspended with 20 ml PBS with 0.5 mM EDTA and lysed by sonication for 10 min. After centrifugation, the supernatants were incubated with GST-accept resin (Nacalai tesque). After three times wash by PBS, the proteins were eluted with glutathione buffer (10 mM glutathione and 50 mM Tris pH 8.0). The buffer of the eluates was exchanged with PBS by a Bio-Scale Mini BioGel P-6 desalting column (Bio-Rad). After incubation with GST-fused HRV 3 C protease at 4 °C overnight, the samples were subjected to a GST-accept resin column to remove excised GST and the protease. RTN3^245–264-GABARAP was purified by cation-exchange chromatography using CM Sepharose FF column (GE Healthcare) with 500 mM MES pH 6.0 as buffer B and 50 mM MES pH 6.0 and 1 M NaCl as buffer C. The samples were further subjected to size-exclusion chromatography with 20 mM HEPES pH 6.8, 150 mM sodium chloride except for mCherry-Atg8-CC^tetramer (20 mM HEPES pH 6.8, 500 mM sodium chloride) using a Superdex 75 10/300 or Superdex 200 26/60 column. As described in Supplementary Table 4, the Atg40^237–252 M245A and Atg40^237–252 D243A D247A peptides were synthesized by Cosmo Bio, and the FAM134B^453–460 and SEC62^361–368 peptides were synthesized by BEX Co., Ltd. The Atg40^234–252 peptide and its variants were prepared using Liberty Blue peptide synthesizer (CEM Corporation). After dissolving these synthesized peptides in 300 μl water with ~10 μl ammonium hydroxide, they were subjected to size-exclusion chromatography with 20 mM HEPES pH 6.8 containing 150 mM sodium chloride using a Superdex 75 10/300 column.
Peptides used in ITC are listed in Supplementary Table 4. ITC experiments were performed using Microcal iTC200 calorimeter (Malvern Panalytical), with stirring at 1000 rpm at 25 °C. Atg40, FAM134B, SEC62, and RTN3 peptides were prepared as injection samples from the syringe. Concentrations of FAM134B, SEC62, and RTN3 peptides were 0.5 mM, whereas those of Atg40^234–252 and Atg40^237–252 peptides were 2.0 and 1.8 mM, respectively. In total, 200 μl Atg8, LC3A, LC3B, LC3C, GABARAP, GABARAPL1, and GABARAPL2 with 10 times lower concentration than the syringe samples were filled in the cell. As an exception, 1.8 mM Atg8 was filled in the cell when 1.8 mM Atg40^237–252 D243A D247A was in a syringe. The titration involved 18 injections of 2 μl of the syringe sample at intervals of 120 s into a cell after one injection of 0.4 μl of syringe sample. […]

The target of another assay is GABARAPL2 WT (Homo sapiens, UniProt P60520). As to the kind of experiment: ITC of peptides with GABARAPL2. As to conditions: 25 °C, ± fitting error. How it is done: as §1, with “As described in Supplementary Table 4, the Atg40^237–252 M245A and Atg40^237–252 D243A D247A peptides were synthesized by Cosmo Bio, and the FAM134B^453–460 and SEC62^361–368 peptides were synthesized by BEX Co., Ltd. The Atg40^234–252 peptide and its variants were prepared using Liberty Blue peptide synthesizer (CEM Corporation). After dissolving these synthesized peptides in 300 μl water with ~10 μl ammonium hydroxide, they were subjected to size-exclusion chromatography with 20 mM HEPES pH 6.8 containing 150 mM sodium chloride using a Superdex 75 10/300 column.” left out

A further assay addresses LC3B WT (Rattus norvegicus, UniProt Q62625). As to the kind of experiment: ITC of peptides with LC3B. To be noted: 25 °C, ± fitting error. An excerpt:
All plasmids for expression of recombinant proteins and peptides in bacteria were based on a pGEX6P-1 vector (GE Healthcare). Construction of pGEX6P-ScAtg8 (1-116) K26P and pGEX6P-rat LC3B (1-120) was previously described[35],[47]. All mutations were generated by PCR-based mutagenesis. The genes were amplified by PCR and inserted downstream of the HRV 3C protease recognition site by NEBuilder HiFi DNA Assembly Master Mix (New England Biolabs) except for that encoding human GABARAP (1-116), which was inserted using restriction enzymes for the NdeI and BamHI sites. Plasmids for expression of fusion proteins for crystallization were constructed by inserting the genes encoding Atg40^237–252, human FAM134B^450–468, human SEC62^361–376 with the T367D mutation, and human RTN3^245–264 isoform e into upstream of the sequence encoding Atg8 K26P of pGEX6P-Atg8 (the K26P mutation was introduced for stabilizing Atg8) or upstream of the sequence encoding GABARAP of pGEX6P-GABARAP (with the F3S V4T mutations for enhancing crystallization). For phase-separation experiments, the mCherry and BNDL1[25],[26] sequences were inserted into upstream and downstream of the ATG8 gene in pGEX6P-Atg8 K26P, respectively. pGEX-SNAP-40C was constructed by the removal of the HRV 3C protease recognition site and the insertion of the SNAP sequence from pSNAP-tag(T7) vector (New England Biolabs) with a linker (Gly–Gly–Gly–Ser–Gly–Gly–Gly) and Atg40^194–256 following a linker (Ser–Ala–Ser–Ser) to upstream and downstream of GST in pGEX6P-1 vector, respectively. In the construction of plasmids for peptide production, a Tyr residue was attached to their C termini for enabling the quantification by absorbance at 280 nm (Supplementary Table 4).
Some of peptides (Supplementary Table 4) and all proteins except Atg40-6His were expressed in E. coli BL21 (DE3). Bacteria were cultured at 37 °C until OD600 became 0.8–1.0 and further cultured at 16 °C with 100 μM IPTG overnight. After centrifugation, the pellets were resuspended with 20 ml PBS with 0.5 mM EDTA and lysed by sonication for 10 min. […]

A further assay deals with GABARAPL1 WT (Homo sapiens, UniProt Q9H0R8). As to the kind of experiment: ITC of peptides with GABARAPL1. As to conditions: 25 °C, ± fitting error. The method, then: as §1, with “As described in Supplementary Table 4, the Atg40^237–252 M245A and Atg40^237–252 D243A D247A peptides were synthesized by Cosmo Bio, and the FAM134B^453–460 and SEC62^361–368 peptides were synthesized by BEX Co., Ltd. The Atg40^234–252 peptide and its variants were prepared using Liberty Blue peptide synthesizer (CEM Corporation). After dissolving these synthesized peptides in 300 μl water with ~10 μl ammonium hydroxide, they were subjected to size-exclusion chromatography with 20 mM HEPES pH 6.8 containing 150 mM sodium chloride using a Superdex 75 10/300 column.” left out

A further assay concerns the target LC3A WT (Homo sapiens, UniProt Q9H492). As to the kind of experiment: ITC of peptides with LC3A. As to conditions: 25 °C, ± fitting error. The method, then:
as §1
Peptides used in ITC are listed in Supplementary Table 4. ITC experiments were performed using Microcal iTC200 calorimeter (Malvern Panalytical), with stirring at 1000 rpm at 25 °C. […]

In the next assay the target is Atg8 (Saccharomyces cerevisiae, UniProt P38182, K26P). As to the kind of experiment: biochemical.
Chain of Atg8 (P38182 1-116 K26P): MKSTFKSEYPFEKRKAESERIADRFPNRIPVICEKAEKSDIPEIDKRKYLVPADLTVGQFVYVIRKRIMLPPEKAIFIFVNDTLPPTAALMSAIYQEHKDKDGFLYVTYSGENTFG

Chain of GABARAPL1 WT (Q9H0R8 whole entry): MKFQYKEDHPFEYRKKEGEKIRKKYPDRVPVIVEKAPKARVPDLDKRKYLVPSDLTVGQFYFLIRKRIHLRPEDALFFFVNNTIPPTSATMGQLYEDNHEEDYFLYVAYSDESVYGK
Chain of GABARAPL2 WT (P60520 whole entry): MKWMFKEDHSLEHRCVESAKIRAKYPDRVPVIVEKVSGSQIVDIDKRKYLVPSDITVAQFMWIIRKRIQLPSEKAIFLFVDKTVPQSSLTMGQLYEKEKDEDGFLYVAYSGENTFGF
Chain of LC3C WT (Q9BXW4 whole entry, the tested form may be a part): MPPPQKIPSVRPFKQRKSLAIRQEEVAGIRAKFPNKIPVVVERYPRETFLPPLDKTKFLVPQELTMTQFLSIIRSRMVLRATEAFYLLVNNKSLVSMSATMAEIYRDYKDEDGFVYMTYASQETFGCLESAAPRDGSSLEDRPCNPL
Method for Atg8: ITC experiments were performed using Microcal iTC200 calorimeter (Malvern Panalytical), with stirring at 1000 rpm at 25 °C. Atg40, FAM134B, SEC62, and RTN3 peptides were prepared as injection samples from the syringe. […] In total, 200 μl Atg8, LC3A, LC3B, LC3C, GABARAP, GABARAPL1, and GABARAPL2 with 10 times lower concentration than the syringe samples were filled in the cell. […] The titration involved 18 injections of 2 μl of the syringe sample at intervals of 120 s into a cell after one injection of 0.4 μl of syringe sample. Data sets obtained from the titration of the same syringe sample to the cell filled with buffer were used as reference data for subtraction of heat of dilution. MicroCal Origin 7.0 software was used for data analysis. Thermal measurement of the first injection of the syringe samples was removed from the analysis.

`CC[C@H](C)[C@H](NC(=O)[C@H](CCSC)NC(=O)[C@H](CCC(=O)O)NC(=O)[C@H](Cc1ccccc1)NC(=O)[C@H](CC(=O)O)NC(=O)[C@H](CC(N)=O)NC(=O)CNC(=O)[C@H](CC(N)=O)NC(=O)CNC(=O)[C@H](CO)NC(=O)[C@H](CO)NC(=O)[C@H](Cc1c[nH]cn1)NC(=O)[C@@H]1CCCN1C(=O)CN)C(=O)N[C@H](C(=O)N[C@@H](CCCCN)C(=O)N[C@@H](CCC(=O)O)C(=O)N[C@@H](CCC(=O)O)C(=O)N[C@@H](CC(C)C)C(=O)N[C@@H](CCC(=O)O)C(=O)N[C@@H](CCC(N)=O)C(=O)N[C@@H](CCC(N)=O)C(=O)N[C@H](C(=O)N[C@@H](CC(=O)O)C(=O)N[C@@H](Cc1ccc(O)cc1)C(=O)O)[C@@H](C)O)[C@@H](C)O` [SEC62^355-376 WT] (H-GPHSSGNGNDFEMITKEELEQQTDY-OH): the “N (site), stoichiometry of binding” value on LC3C WT (LC3C WT in cell, N fixed to 1.0 when fitting not convergent) stood at 0.46 ± 0.02; on GABARAPL2 WT (GABARAPL2 WT in cell, N fixed to 1.0 when fitting not convergent), 0.78 ± 0.01; at LC3B WT (LC3B WT in cell, N fixed to 1.0 when fitting not convergent) it was 0.74 ± 0.01; on GABARAPL1 WT (GABARAPL1 WT in cell) it was 0.83 ± 0.01; at LC3A WT (LC3A WT in cell), 0.78 ± 0.01.
What is called Kd is the concentration at which binding is half-saturated. As to `CC[C@H](C)[C@H](NC(=O)[C@H](CC(=O)O)NC(=O)[C@H](CCC(=O)O)NC(=O)[C@H](CCSC)NC(=O)[C@H](Cc1ccccc1)NC(=O)[C@H](CC(=O)O)NC(=O)[C@H](Cc1ccc(O)cc1)NC(=O)[C@H](CC(=O)O)NC(=O)[C@H](CC(N)=O)NC(=O)[C@@H]1CCCN1C(=O)[C@H](Cc1ccccc1)NC(=O)[C@H](CCC(=O)O)NC(=O)[C@@H]1CCCN1C(=O)CN)C(=O)N[C@@H](CC(C)C)C(=O)N[C@@H](CC(=O)O)C(=O)N[C@@H](CCC(=O)O)C(=O)N[C@H](C(=O)O)[C@@H](C)O` [Atg40^237-252 WT] (H-GPEFPNDYDFMEDILDET-OH), the equilibrium dissociation constant (Kd) at Atg8 came out at 570 ± 510 nM. For the same molecule, on Atg8 (ITC, 25 °C, peptide in syringe 2.0 or 1.8 mM, Atg8 in cell 10 times lower, single-site model, ± fitting error), the “N (site), stoichiometry of binding” value was found to be 0.90 ± 0.03.
With `CC[C@H](C)[C@H](NC(=O)[C@H](CCC(N)=O)NC(=O)[C@H](CC(=O)O)NC(=O)[C@H](CC(C)C)NC(=O)[C@H](CCC(=O)O)NC(=O)[C@H](CO)NC(=O)[C@H](CCC(N)=O)NC(=O)[C@H](CC(=O)O)NC(=O)[C@H](CC(C)C)NC(=O)[C@H](CC(C)C)NC(=O)[C@H](CCC(=O)O)NC(=O)[C@H](Cc1ccccc1)NC(=O)[C@H](CC(=O)O)NC(=O)[C@H](CC(=O)O)NC(=O)CNC(=O)[C@H](CCC(=O)O)NC(=O)[C@H](CCC(=O)O)NC(=O)[C@@H](NC(=O)[C@H](CC(=O)O)NC(=O)[C@@H](NC(=O)[C@H](CC(=O)O)NC(=O)[C@H](CCC(=O)O)NC(=O)[C@H](CCC(=O)O)NC(=O)[C@@H]1CCCN1C(=O)CN)[C@@H](C)O)[C@@H](C)O)C(=O)N[C@@H](CCC(=O)O)C(=O)N[C@@H](CO)C(=O)N[C@@H](CCC(=O)O)C(=O)N[C@@H](CC(C)C)C(=O)N[C@@H](Cc1ccc(O)cc1)C(=O)O` [FAM134B^444-470 WT], the Kd was found to be 1110 ± 350 nM at LC3C WT (0.5 mM peptide in syringe, LC3C WT in cell 10 times lower, single-site model, read-out: Kd); 300 ± 100 nM at GABARAPL2 WT (0.5 mM peptide in syringe, GABARAPL2 WT in cell 10 times lower, single-site model); 620 ± 160 nM at LC3B WT (0.5 mM peptide in syringe, LC3B WT in cell 10 times lower, single-site model); 120 ± 40 nM on GABARAPL1 WT (0.5 mM peptide in syringe, GABARAPL1 WT in cell 10 times lower, single-site model); 210 ± 30 nM at LC3A WT (0.5 mM peptide in syringe, LC3A WT in cell 10 times lower, single-site model).
